Consider four compounds from patent US20240279278A1, “NMU RECEPTOR 2 AGONISTS” (Boehringer Ingelheim International GmbH, priority 2023, published 2024).

Residues, ends and D or L forms follow the SMILES beside them.

In experiment [1] the target is T1, human NMUR1 receptor (Homo sapiens, UniProt Q9HB89).
T1 construct: host or cells: CHO-K1
T1 sequence (Q9HB89 24-426 limits assumed): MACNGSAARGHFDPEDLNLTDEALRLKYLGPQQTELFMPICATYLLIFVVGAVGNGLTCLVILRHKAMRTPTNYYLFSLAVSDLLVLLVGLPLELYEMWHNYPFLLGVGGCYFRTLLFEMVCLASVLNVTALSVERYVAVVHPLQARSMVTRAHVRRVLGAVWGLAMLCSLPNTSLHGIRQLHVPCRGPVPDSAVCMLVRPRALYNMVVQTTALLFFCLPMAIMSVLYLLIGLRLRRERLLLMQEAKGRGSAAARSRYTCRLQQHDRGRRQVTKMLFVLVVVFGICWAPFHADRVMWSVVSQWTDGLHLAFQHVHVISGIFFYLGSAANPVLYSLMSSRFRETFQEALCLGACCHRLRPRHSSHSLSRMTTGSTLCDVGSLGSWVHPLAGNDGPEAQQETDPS
The experiment can be described thus: Radioligand binding competition assay (RLB), human NMUR1 receptor binding (SPA, [125I]-Neuromedin U-25). Particulars: CHO-K1 hNMUR1 cell membranes, 4 hours at RT. The method in brief: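 SPA competition binding on CHO-K1 membranes stably expressing human NMUR1 (about 1.0 μg protein) on WGA-PVT beads, using about 30 pM [125I]-Neuromedin U-25. Incubation was 4 h at RT in 25 mM Hepes pH 7.0, 5 mM MgCl2, 1 mM CaCl2, saponin and 0.1% BSA. Non-specific binding was defined by 100 nM unlabeled hNMU-25; values assume one-site reversible equilibrium binding.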

In experiment [2] the target is human NMUR2 receptor (Homo sapiens, UniProt Q9GZQ4). The experiment can be described thus: Radioligand binding competition assay (RLB), human NMUR2 receptor binding (SPA, [125I]-Neuromedin U-25). Further details: host or cells: CHO-K1. Particulars: CHO-K1 hNMUR2 cell membranes, 4 hours at RT.
Sequence of human NMUR2 receptor (Q9GZQ4 whole entry): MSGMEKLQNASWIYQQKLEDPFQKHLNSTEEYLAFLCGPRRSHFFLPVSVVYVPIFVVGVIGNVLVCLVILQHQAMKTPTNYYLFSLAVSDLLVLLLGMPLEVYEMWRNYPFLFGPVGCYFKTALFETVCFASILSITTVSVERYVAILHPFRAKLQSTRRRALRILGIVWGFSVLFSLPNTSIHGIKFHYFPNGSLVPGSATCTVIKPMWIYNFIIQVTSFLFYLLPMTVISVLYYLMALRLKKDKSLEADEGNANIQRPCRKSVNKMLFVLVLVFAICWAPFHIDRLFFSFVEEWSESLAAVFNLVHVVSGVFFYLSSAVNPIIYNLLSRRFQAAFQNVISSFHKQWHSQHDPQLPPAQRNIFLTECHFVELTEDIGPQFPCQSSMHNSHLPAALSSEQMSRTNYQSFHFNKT

Regarding `CCCC[C@H](NC(=O)[C@H](CC(C)C)N(C)C(=O)[C@H](Cc1ccccc1)NC(=O)[C@H](Cc1ccc(O)cc1)NC(=O)CN1CCN(CCNC(=O)CN(C)C(=O)CN(C)C(=O)CN(C)C(=O)CN(C)C(=O)CN(C)C(=O)CN(C)C(=O)CN(C)C(=O)CN(C)C(=O)CN(C)C(=O)CN(C)C(=O)CN(C)C(=O)CN(C)C(=O)CN(C)C(=O)CN(C)C(=O)CN(C)C(=O)CC[C@H](NC(=O)CC[C@H](NC(=O)CC[C@H](NC(=O)CCCCCCCCCCCCCCCCC(=O)O)C(=O)O)C(=O)O)C(=O)O)CC1)C(=O)N[C@@H](CCN)C(=O)N1CCC[C@H]1C(=O)N[C@@H](CCCNC(=N)N)C(=O)NCC(N)=O` [Compound 26, C18DA-gGlu3-Sar15-AEPipAc-Tyr-Phe-NMeLeu-Nle-Dbu-Pro-Arg-Gly-NH2] (HELM PEPTIDE1{[O=C(O)CCCCCCCCCCCCCCCCC(=O)[*:2]].[gGlu].[gGlu].[gGlu].[Sar].[Sar].[Sar].[Sar].[Sar].[Sar].[Sar].[Sar].[Sar].[Sar].[Sar].[Sar].[Sar].[Sar].[Sar].[O=C(CN1CCN(CCN[*:1])CC1)[*:2]].Y.F.[meL].[Nle].[Dab].P.R.G.[am]}$$$$V2.0), the Ki in experiment [1] is > 10000 nM; in experiment [2], 48.1 nM.

As to `CCCC[C@H](NC(=O)[C@H](CC(C)C)N(C)C(=O)[C@H](Cc1ccccc1)NC(=O)[C@H](Cc1ccc(O)cc1)NC(=O)CN1CCN(CCNC(=O)CN(C)C(=O)CN(C)C(=O)CN(C)C(=O)CN(C)C(=O)CN(C)C(=O)CN(C)C(=O)CN(C)C(=O)CN(C)C(=O)CN(C)C(=O)CN(C)C(=O)CN(C)C(=O)CN(C)C(=O)CN(C)C(=O)CN(C)C(=O)CN(C)C(=O)CC[C@H](NC(=O)CC[C@H](NC(=O)CC[C@H](NC(=O)CCCCCCCCCCCCCCCCCCC(=O)O)C(=O)O)C(=O)O)C(=O)O)CC1)C(=O)N[C@@H](CCCN)C(=O)N1CCC[C@H]1C(=O)N[C@@H](CCCNC(=N)N)C(=O)NCC(N)=O` [Compound 1, C20DA-gGlu3-Sar15-AEPipAc-Tyr-Phe-NMeLeu-Nle-Orn-Pro-Arg-Gly-NH2] (HELM PEPTIDE1{[O=C(O)CCCCCCCCCCCCCCCCCCC(=O)[*:2]].[gGlu].[gGlu].[gGlu].[Sar].[Sar].[Sar].[Sar].[Sar].[Sar].[Sar].[Sar].[Sar].[Sar].[Sar].[Sar].[Sar].[Sar].[Sar].[O=C(CN1CCN(CCN[*:1])CC1)[*:2]].Y.F.[meL].[Nle].[Orn].P.R.G.[am]}$$$$V2.0), the Ki was > 10000 nM in experiment [1] and 8.6 nM in experiment [2].

For `CCCC[C@H](NC(=O)[C@H](CC(C)C)N(C)C(=O)[C@H](Cc1ccccc1)NC(=O)[C@H](Cc1ccc(O)cc1)NC(=O)CN1CCN(CCNC(=O)CN(C)C(=O)CN(C)C(=O)CN(C)C(=O)CN(C)C(=O)CN(C)C(=O)CN(C)C(=O)CN(C)C(=O)CN(C)C(=O)CN(C)C(=O)CN(C)C(=O)CN(C)C(=O)CN(C)C(=O)CN(C)C(=O)CN(C)C(=O)CN(C)C(=O)CC[C@H](NC(=O)CC[C@H](NC(=O)CC[C@H](NC(=O)CCCCCCCCCCCCCCCCC(=O)O)C(=O)O)C(=O)O)C(=O)O)CC1)C(=O)N[C@@H](CCCN)C(=O)N1CCC[C@H]1C(=O)N[C@@H](CCCNC(=N)N)C(=O)NCC(N)=O` [Compound 21, C18DA-gGlu3-Sar15-AEPipAc-Tyr-Phe-NMeLeu-Nle-Orn-Pro-Arg-Gly-NH2] (HELM PEPTIDE1{[O=C(O)CCCCCCCCCCCCCCCCC(=O)[*:2]].[gGlu].[gGlu].[gGlu].[Sar].[Sar].[Sar].[Sar].[Sar].[Sar].[Sar].[Sar].[Sar].[Sar].[Sar].[Sar].[Sar].[Sar].[Sar].[O=C(CN1CCN(CCN[*:1])CC1)[*:2]].Y.F.[meL].[Nle].[Orn].P.R.G.[am]}$$$$V2.0), the results for the Ki in experiment [1] and in experiment [2] were > 10000 nM and 55.9 nM, respectively.

As to `CCCC[C@H](NC(=O)[C@H](CC(C)C)N(C)C(=O)[C@H](Cc1ccccc1)NC(=O)[C@H](Cc1ccc(O)cc1)NC(=O)CN1CCN(CCNC(=O)CN(C)C(=O)CN(C)C(=O)CN(C)C(=O)CN(C)C(=O)CN(C)C(=O)CN(C)C(=O)CN(C)C(=O)CN(C)C(=O)CN(C)C(=O)CN(C)C(=O)CN(C)C(=O)CN(C)C(=O)CN(C)C(=O)CN(C)C(=O)CN(C)C(=O)CC[C@H](NC(=O)CC[C@H](NC(=O)CC[C@H](NC(=O)CCCCCCCCCCCCCCCCCCC(=O)O)C(=O)O)C(=O)O)C(=O)O)CC1)C(=O)N[C@@H](CCCNC(=N)N)C(=O)N(C)[C@@H](C)C(=O)N[C@@H](CCCNC(=N)N)C(=O)NCC(N)=O` [Compound 10, C20DA-gGlu3-Sar15-AEPipAc-Tyr-Phe-NMeLeu-Nle-Arg-NMeAla-Arg-Gly-NH2] (HELM PEPTIDE1{[O=C(O)CCCCCCCCCCCCCCCCCCC(=O)[*:2]].[gGlu].[gGlu].[gGlu].[Sar].[Sar].[Sar].[Sar].[Sar].[Sar].[Sar].[Sar].[Sar].[Sar].[Sar].[Sar].[Sar].[Sar].[Sar].[O=C(CN1CCN(CCN[*:1])CC1)[*:2]].Y.F.[meL].[Nle].R.[meA].R.G.[am]}$$$$V2.0), the Ki was > 10000 nM in experiment [1] and 204 nM in experiment [2].
